Values after ≈ are worked out from the molar mass of the structure shown.
What was measured:
M. avium LPR = test: Broth dilution MIC vs M. avium LPR; assay type: cell-based; details: Mycobacterium avium, M. avium LPR (footnote a), 7H10 broth, pH 5.8
M. kansasii SWK = test: Broth dilution MIC vs M. kansasii SWK; assay type: cell-based; details: Mycobacterium kansasii, 7H10 broth, pH 5.8
M. tuberculosis 102 = test: Broth dilution MIC vs M. tuberculosis 102; assay type: cell-based; details: Mycobacterium tuberculosis, 102, pH 5.8, M. tuberculosis 102, 7H10 broth, read-out: MIC
[1] = test system: Myobacterium tuberculosis H37RV; details: cited from earlier work
[2] = test system: Mycobacterium (M.) tuberculosis; details: in words; cited from earlier work
[3] = test system: M. bovis or other mycobacteria; details: in words; cited from earlier work
M. avium = details: Heifets et al. 1986; cited from earlier work
[4] = in words; cited from earlier work
[5] = test system: a number of bacteria including M. tuberculosis; details: Suzuki et al. 1958; cited from earlier work

Work on `CCCCCCC(C)(CCCCCC)OC(=O)c1cnc(Cl)cn1` [Example 17] yielded an MIC (M. avium LPR) of 16 µg/mL (≈ 45.1 µM), an MIC (M. kansasii SWK) of 2 µg/mL (≈ 5.64 µM) and an MIC (M. tuberculosis 102) of 0.25 µg/mL (≈ 0.704 µM).
In the case of `CN(C)CCOC(=O)c1cnccn1` [N,N-dimethyl-2-aminoethyl pyrazinoate], the “in vitro activity against M. tuberculosis H37RV” value [1] is given as “active”.
In the case of `NC(=O)c1cnccn1` [pyrazinamide], the “activity against M. tuberculosis” value [2] is given as “only active against Mycobacterium (M.) tuberculosis”, the “activity against M. bovis or other mycobacteria” value [3] is given as “not active” and the “activity against M. avium” value (M. avium) is given as “inactive”. The hepatotoxicity [4] was “hepatotoxicity”.
For pyrazinoate ester of chloramphenicol, the “activity against bacteria including M. tuberculosis” value [5] is listed as “inactive”.
